# Reference: publication PMC2263054, “Functional evolution of the vitamin D and pregnane X receptors” (BMC Evolutionary Biology, 2007)
# What was measured:
# Sea lamprey VDR = target: T1, Sea lamprey VDR (Petromyzon marinus, UniProt Q7ZZY9); type: cell-based; settings: for Sea lamprey VDR EC50 ± SD: HepG2-NTCP cells, luciferase reporter, unit not given, also cells saying No effect
# T1 sequence (Q7ZZY9 92-406): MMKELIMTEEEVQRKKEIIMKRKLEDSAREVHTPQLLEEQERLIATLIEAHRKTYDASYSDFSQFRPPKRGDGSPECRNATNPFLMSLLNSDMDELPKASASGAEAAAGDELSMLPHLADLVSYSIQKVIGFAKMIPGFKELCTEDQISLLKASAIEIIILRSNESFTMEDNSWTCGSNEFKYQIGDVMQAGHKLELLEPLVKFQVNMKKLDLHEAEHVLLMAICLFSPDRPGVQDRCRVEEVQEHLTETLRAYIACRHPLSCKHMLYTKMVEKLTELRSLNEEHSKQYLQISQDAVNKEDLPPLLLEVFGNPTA
# EROD activity [1] = test: EROD assay in African clawed frog primary hepatocytes; type: cell-based, Xenopus laevis; settings: 48 hour exposure
# Protocol: Xenopus laevis primary hepatocytes were cultured by a protocol adapted from a published report. Frogs are sacrificed with MS-222, rinsed with 70% ethanol, and the liver lobes perfused via the heart, initially with 375 mL Barth (88 mM NaCl, 1 mM K2SO4, and 10 mM HEPES-NaOH, pH 7.4) containing 0.82 mM MgCl2 and 0.1 mg/mL heparin, and then with 25 mL Barth containing 2.22 mM Ca(NO3)2, 2.74 mM CaCl2, and 200 U/mL type I collagenase (Worthington Chemicals, Lakewood, NJ). Livers are minced to fine pieces in 12.5 mL Barth-collagenase solution and then incubated for 10 min at room temperature, periodically disaggregating the liver pieces with a Pasteur pipette. The liver cells are then placed on a shaking incubator for 5 min at room temperature, followed by another 10 min of periodic pipetting to complete disaggregation. Cells are then filtered through a 130 μm Nitex nylon mesh (Fisher Scientific), following by spinning at 500 g for 5 min at 4°C. The supernatant is then aspirated and diluted to 50 mL with Barth plus MgCl2 and then allowed to settle while cooled in ice for 30 min. The supernatant is removed, and the cellular pellet is resuspended and subjected to one more round of nylon mesh filtration, dilution in Barth plus MgCl2, and settling while cooled in ice. […]
# zebrafish PXR = settings: luciferase reporter in HepG2 cells, normalized to 20 μM androstanol
# Mouse VDR = target: T2, Mouse VDR (Mus musculus, UniProt P48281); test: luciferase reporter transactivation assay in HepG2-NTCP cells, full-length mVDR with CYP3A4-PXRE-Luc; settings: HepG2-NTCP cells, luciferase reporter; unit not given; also cells saying No effect
# T2 sequence (P48281 1-422): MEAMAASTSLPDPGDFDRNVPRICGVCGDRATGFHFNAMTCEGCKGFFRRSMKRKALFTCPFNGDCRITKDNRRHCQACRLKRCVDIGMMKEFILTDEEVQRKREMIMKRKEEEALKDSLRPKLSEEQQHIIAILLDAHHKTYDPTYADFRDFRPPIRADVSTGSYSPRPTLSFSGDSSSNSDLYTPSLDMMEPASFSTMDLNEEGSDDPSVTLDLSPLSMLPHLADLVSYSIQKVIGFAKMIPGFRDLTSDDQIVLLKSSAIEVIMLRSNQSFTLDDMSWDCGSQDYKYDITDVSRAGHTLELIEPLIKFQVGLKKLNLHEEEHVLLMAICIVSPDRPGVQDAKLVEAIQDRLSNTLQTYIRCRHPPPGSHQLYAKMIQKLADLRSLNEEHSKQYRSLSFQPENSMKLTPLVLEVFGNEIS
# EROD activity [2] = test: EROD assay in sea lamprey primary hepatocytes; settings: 24–48 hr exposure
# Xenopus laevis VDR = target: T3, Xenopus laevis VDR (Xenopus laevis, UniProt O13124); test: luciferase reporter transactivation assay in HepG2-NTCP cells, GAL4/xlVDR LBD chimera with tk-UAS-Luc; type: cell-based; settings: for Xenopus VDR EC50 ± SD: HepG2-NTCP cells, luciferase reporter, unit not given, also cells saying No effect
# T3 sequence (O13124 90-422): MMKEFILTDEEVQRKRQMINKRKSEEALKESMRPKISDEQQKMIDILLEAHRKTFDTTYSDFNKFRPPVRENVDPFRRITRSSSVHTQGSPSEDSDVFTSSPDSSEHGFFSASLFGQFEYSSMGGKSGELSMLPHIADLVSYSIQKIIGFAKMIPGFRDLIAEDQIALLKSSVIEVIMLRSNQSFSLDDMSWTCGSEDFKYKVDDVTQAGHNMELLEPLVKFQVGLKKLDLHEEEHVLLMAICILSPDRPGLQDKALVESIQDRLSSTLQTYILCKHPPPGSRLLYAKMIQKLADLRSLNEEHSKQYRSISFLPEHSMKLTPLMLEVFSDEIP
# [3] = system: testosterone 6β-hydroxylation; test: testosterone hydroxylation (HPLC) in sea lamprey primary hepatocytes; type: cell-based; settings: concentration ranges per compound
# Protocol: (§1) 100 μL of sample, calibration standard, or quality material standard were pipetted into separate microcentrifuge tubes and mixed with 100 μL of methanol. Samples were vortexed and centrifuged at 13,000 rpm for 4 min. The supernatant was then injected into the HPLC.
# (§2) The flow rate was 1.2 mL/min and total run time was 25 min.
# Human VDR = target: T4, Human VDR (Homo sapiens, UniProt P11473); test: luciferase reporter transactivation assay in HepG2-NTCP cells, full-length hVDR with CYP3A4-PXRE-Luc; settings: HepG2-NTCP cells, luciferase reporter; unit not given; also cells saying No effect
# T4 sequence (P11473 1-427): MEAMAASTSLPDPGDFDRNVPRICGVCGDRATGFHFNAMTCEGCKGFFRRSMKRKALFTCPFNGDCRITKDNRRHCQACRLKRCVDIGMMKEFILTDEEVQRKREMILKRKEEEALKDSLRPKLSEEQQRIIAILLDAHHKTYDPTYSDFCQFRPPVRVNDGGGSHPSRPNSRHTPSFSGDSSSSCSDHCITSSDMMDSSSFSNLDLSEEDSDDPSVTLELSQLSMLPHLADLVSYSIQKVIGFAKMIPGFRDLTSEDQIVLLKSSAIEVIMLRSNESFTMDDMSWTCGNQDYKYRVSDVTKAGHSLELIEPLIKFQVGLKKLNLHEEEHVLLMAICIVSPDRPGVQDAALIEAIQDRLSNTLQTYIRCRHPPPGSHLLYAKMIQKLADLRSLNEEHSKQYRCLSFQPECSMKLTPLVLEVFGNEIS
# [4] = system: flurbiprofen 4-hydroxylation activity (CYP2C-like activity); settings: zebrafish primary hepatocytes, 48-hour exposure; TCDD 1 nM, androstanol 200 μM
# Zebrafish VDR = target: T5, Zebrafish VDR (Danio rerio, UniProt Q9PTN2); test: luciferase reporter transactivation assay in HepG2-NTCP cells, GAL4/zfVDR LBD chimera with tk-UAS-Luc; type: cell-based; settings: for Zebrafish VDR EC50 ± SD: HepG2-NTCP cells, luciferase reporter, unit not given, also cells saying No effect
# T5 sequence (Q9PTN2 121-453): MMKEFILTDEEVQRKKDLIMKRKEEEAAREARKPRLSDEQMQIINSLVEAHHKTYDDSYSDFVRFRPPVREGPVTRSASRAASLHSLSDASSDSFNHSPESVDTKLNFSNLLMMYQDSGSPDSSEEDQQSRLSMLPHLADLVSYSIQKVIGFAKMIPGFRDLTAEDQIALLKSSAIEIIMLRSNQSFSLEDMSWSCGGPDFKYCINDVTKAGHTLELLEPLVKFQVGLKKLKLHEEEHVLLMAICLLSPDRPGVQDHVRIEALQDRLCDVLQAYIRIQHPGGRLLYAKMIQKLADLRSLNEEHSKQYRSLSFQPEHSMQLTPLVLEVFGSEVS
# [5] = system: ethoxyresorufin O-deethylase (EROD) activity (CYP1A-like activity); test: EROD assay in zebrafish primary hepatocytes; settings: for maximal rate of EROD activity: zebrafish primary hepatocytes, 24 hour exposure (Figure 3 legend: 48-hour)
# Protocol: (§3) The cells are cultured at 26°C in ambient atmosphere.
# [6] = system: testosterone 6β-hydroxylation activity (CYP3A-like activity); test: testosterone hydroxylation (HPLC) in zebrafish primary hepatocytes
# Protocol: as §3, §1, §2
# [7] = system: 6β- and 12α-hydroxylation of testosterone; test: testosterone hydroxylation (HPLC) in African clawed frog primary hepatocytes; type: cell-based, Xenopus laevis; settings: relative to vehicle control
# Protocol: Xenopus laevis primary hepatocytes were cultured by a protocol adapted from a published report. Frogs are sacrificed with MS-222, rinsed with 70% ethanol, and the liver lobes perfused via the heart, initially with 375 mL Barth (88 mM NaCl, 1 mM K2SO4, and 10 mM HEPES-NaOH, pH 7.4) containing 0.82 mM MgCl2 and 0.1 mg/mL heparin, and then with 25 mL Barth containing 2.22 mM Ca(NO3)2, 2.74 mM CaCl2, and 200 U/mL type I collagenase (Worthington Chemicals, Lakewood, NJ). Livers are minced to fine pieces in 12.5 mL Barth-collagenase solution and then incubated for 10 min at room temperature, periodically disaggregating the liver pieces with a Pasteur pipette. The liver cells are then placed on a shaking incubator for 5 min at room temperature, followed by another 10 min of periodic pipetting to complete disaggregation. Cells are then filtered through a 130 μm Nitex nylon mesh (Fisher Scientific), following by spinning at 500 g for 5 min at 4°C. The supernatant is then aspirated and diluted to 50 mL with Barth plus MgCl2 and then allowed to settle while cooled in ice for 30 min. The supernatant is removed, and the cellular pellet is resuspended and subjected to one more round of nylon mesh filtration, dilution in Barth plus MgCl2, and settling while cooled in ice. The supernatant is removed and the remaining cells are washed once with Barth plus MgCl2 and then centrifuged at 500 g for 5 min at 4°C. The cells are then resuspended in 0.6 × Coon's Modified Ham's F-12 medium (Invitrogen) supplemented with 0.1 × Barth (88 mM NaCl, 1 mM K2SO4, 10 mM HEPES), 200 U/mL penicillin G, 100 μg/mL streptomycin sulfate, 2 mM glutamine, 0.2% glucose, and 10 μg/mL bovine insulin (Calbiochem), with the final pH adjusted to 7.5. […] Cells are cultured at 20°C in ambient atmosphere.
# Testosterone metabolites were identified and quantitated by HPLC. […] The supernatant was then injected into the HPLC.
# [8] = system: Flurbiprofen 4-hydroxylation; test: flurbiprofen hydroxylation assay in sea lamprey primary hepatocytes; type: cell-based; settings: 48 hour treatment, 5α-petromyzonol 20 μM, 3-MC 5 μM, basal 2.8
# [9] = screening for activators, at least three concentrations of each drug
Compound,Sea lamprey VDR EC50 ± SD (Sea lamprey VDR),Mouse VDR EC50 ± SD (Mouse VDR),effect on EROD activity (EROD activity [2]),Xenopus VDR EC50 ± SD (Xenopus laevis VDR),effect on testosterone 6β-hydroxylation [3],Human VDR EC50 ± SD (Human VDR),Zebrafish VDR EC50 ± SD (Zebrafish VDR),maximal rate of EROD activity [5] [pmol/min/mg protein],Flurbiprofen 4-hydroxylation activity [8] [nmol/min/mg protein],other results
"Clc1cc2c(cc1Cl)Oc1cc(Cl)c(Cl)cc1O2 [2,3,7,8-Tetrachlorodibenzo-p-dioxin, 2,3,7,8-tetrachlorodibenzo-p-dioxin]",No effect,No effect,did not alter EROD activity,No effect,None of these compounds produced significant increases in testosterone 6β-hydroxylation,No effect,No effect,33.0,–,"maximal rate of EROD activity (EROD activity [1]): 9.8 pmol/min/mg protein; EC50 (EROD activity [1]; Xenopus laevis, Hepatocyte, read-out: EC50 for increase of EROD activity): 6.5 ± 0.77 nM; activation of recombinant zebrafish PXR (zebrafish PXR): all activate recombinant zebrafish PXR; effect on flurbiprofen 4-hydroxylation activity [4]: Lesser increases relative to vehicle control; Ciona VDR/PXR relative efficacy (Ciona VDR/PXR; relative to maximal reference compound (20 μM 6-formylindolo-[3,2-b]-carbazole, efficacy = 1.0)): 1.80; activation of ciVDR/PXR (Ciona VDR/PXR; unpublished data of the authors): activated; EC50 at 24 h ([5]; zebrafish, pH 7.8): 0.15 ± 0.022 nM; EC50 at 48 h ([6]; zebrafish): 0.154 ± 0.03 nM; maximal rate of testosterone 6β-hydroxylation ([6]; zebrafish primary hepatocytes, 48-hour exposure): 2830 pmol/min/mg protein; effect on 6β- and 12α-hydroxylation of testosterone [7]: neither activity was substantially increased relative to vehicle control"
"C[C@H](CCCO)[C@H]1CC[C@H]2[C@@H]3[C@H](O)C[C@H]4C[C@H](O)CC[C@]4(C)[C@H]3C[C@H](O)[C@]12C [5α-Petromyzonol, 5α-cholan-3α,7α,12α,24-tetrol]",No effect,No effect,did not alter EROD activity,No effect,None of these compounds produced significant increases in testosterone 6β-hydroxylation,No effect,No effect,–,0.21,"Ciona VDR/PXR EC50 ± SD (Ciona VDR/PXR; HepG2-NTCP cells, luciferase reporter, unit not given, also cells saying No effect): No effect"
Cc1ccc2cc3c(ccc4ccccc43)c3c2c1CC3 [3-Methylcholanthrene],–,–,did not alter EROD activity,–,None of these compounds produced significant increases in testosterone 6β-hydroxylation,–,–,28.1,0.33,"Effect on sea lamprey VDR (Sea lamprey VDR; [9]): No effect; Effect on Xenopus laevis VDR (Xenopus laevis VDR; [9]): No effect; Effect on zebrafish VDR (Zebrafish VDR; [9]): No effect; EC50 ([5]; zebrafish, pH 7.8): 373 ± 22 nM"
